The values that follow are results of earlier work, collected in patent US20230390251A1, “METHODS OF TREATING RIBONUCLEOTIDE REDUCTASE-RELATED DISEASES WITH A RIBONUCLEOTIDE REDUCTASE INHIBITOR” (TAIHO PHARMACEUTICAL CO., LTD., priority 2020, published 2023).

This data set deals with T1, Ribonucleotide reductase (RNR) (Homo sapiens, UniProt P23921+P31350).
T1 sequence (P23921 1-792): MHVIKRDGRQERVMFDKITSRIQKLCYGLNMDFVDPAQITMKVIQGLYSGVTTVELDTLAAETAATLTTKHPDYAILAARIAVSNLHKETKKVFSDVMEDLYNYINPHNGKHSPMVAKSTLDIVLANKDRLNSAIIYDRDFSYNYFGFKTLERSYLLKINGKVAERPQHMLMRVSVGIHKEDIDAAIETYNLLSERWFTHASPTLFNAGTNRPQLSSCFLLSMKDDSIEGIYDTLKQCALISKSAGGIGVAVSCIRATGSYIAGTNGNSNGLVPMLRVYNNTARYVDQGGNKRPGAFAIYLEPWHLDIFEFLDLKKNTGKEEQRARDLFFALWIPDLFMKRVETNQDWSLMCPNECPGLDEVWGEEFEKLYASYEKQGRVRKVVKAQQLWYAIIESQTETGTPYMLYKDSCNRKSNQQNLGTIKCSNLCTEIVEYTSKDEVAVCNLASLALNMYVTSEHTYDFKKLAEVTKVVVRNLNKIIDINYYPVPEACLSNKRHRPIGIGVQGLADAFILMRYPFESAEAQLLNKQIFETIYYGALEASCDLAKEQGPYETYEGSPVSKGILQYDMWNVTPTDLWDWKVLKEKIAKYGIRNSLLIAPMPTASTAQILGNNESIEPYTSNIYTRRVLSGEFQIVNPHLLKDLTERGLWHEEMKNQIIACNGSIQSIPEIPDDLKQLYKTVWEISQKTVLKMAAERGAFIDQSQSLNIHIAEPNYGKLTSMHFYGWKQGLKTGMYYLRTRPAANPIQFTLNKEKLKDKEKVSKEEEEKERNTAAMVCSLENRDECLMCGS
T1 sequence (P31350 1-389): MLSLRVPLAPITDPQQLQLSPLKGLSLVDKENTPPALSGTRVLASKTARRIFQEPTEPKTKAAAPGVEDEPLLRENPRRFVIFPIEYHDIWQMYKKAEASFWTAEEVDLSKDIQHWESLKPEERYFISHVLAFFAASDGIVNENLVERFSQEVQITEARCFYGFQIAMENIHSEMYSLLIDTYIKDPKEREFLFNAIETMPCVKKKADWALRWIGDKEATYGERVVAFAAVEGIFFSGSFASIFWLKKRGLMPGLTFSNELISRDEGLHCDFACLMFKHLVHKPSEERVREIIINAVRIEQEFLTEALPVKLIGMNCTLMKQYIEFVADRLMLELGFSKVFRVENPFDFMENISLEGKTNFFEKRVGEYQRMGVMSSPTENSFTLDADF
The conditions noted are these: from the literature (NPL 7; PL 1); cited from earlier work.

In the case of `Cc1ccc(F)c([C@@H](C)[C@H](NS(=O)(=O)c2ccc(Cl)cc2C(N)=O)c2n[nH]c(=O)o2)c1C` [Compound A, 5-chloro-2-(N-((1S,2R)-2-(6-fluoro-2,3-dimethylphenyl)-1-(5-oxo-4,5-dihydro-1,3,4-oxadiazol-2-yl)propyl)sulfamoyl)benzamide], the RNR inhibitory activity entry is listed as “potent”.
